Measured values as given in publication PMC3608737, “Odorant Metabolism Catalyzed by Olfactory Mucosal Enzymes Influences Peripheral Olfactory Responses in Rats” (PLoS ONE, 2013).
pIC50: −log10 of the molar value.

Columns and labels:
[1] = system: olfactory epithelium; conditions: for EOG response compared with quinoline: 100 µM, normalized to IBMX responses; for EOG response compared with quinoline / EOG amplitude compared with parent compound (coumarin or 4-MC): vehicle 0.01% DMSO; for EOG amplitude compared with parent compound (coumarin or 4-MC): 1, 10 and 100 µM, normalized to IBMX
Description: Odorant stock solutions (1 M) were prepared in DMSO. Working solutions were prepared extemporaneously by diluting stock solutions with the Ringer solution. […] The IBMX stock solution (10 mM) was also prepared in DMSO. This stock solution was diluted 100-fold with the Ringer solution to produce a working solution (100 µM) containing 0.1% DMSO.
To assess sensory responses induced by odorant stimulation of the olfactory mucosa, we recorded EOGs. […] Rats were sacrificed by CO2 exposure and decapitated. The head was hemisected and the nasal septum was carefully removed to expose the endoturbinate system of the main olfactory system. The tissue was then superfused continuously (5 mL/min) at room temperature (22–25°C) with modified Ringer buffer containing 140 mM NaCl, 5 mM KCl, 2 mM CaCl2, 2 mM MgCl2, 10 mM HEPES [4-(2-hydroxyethyl)-1-piperazineethanesulfonic acid], adjusted to pH 7.2 and to 320 mOsm.L^−1 with glucose. Odorant stimuli were applied to the turbinates using a custom-built odorant delivery system consisting of a Rheodyne six-port injection valve equipped with a 200-µL loop. This valve injects odorant into the continuous stream of the Ringer solution. The distal part of the delivery system was fixed to a micromanipulator and adjusted to produce uniform flow in the vicinity of the recording electrode. The recording electrode was an Ag/AgCl wire positioned in a disposable pipette tip filled with a conductive gel (WPI, Sarasota, USA). The reference electrode was an 8-mm diameter Ag/AgCl disk covered with conductive gel that was placed under the rat hemi-head. Electrical signals were amplified using an AC/DC differential amplifier (A-M Systems, model 3000, Phymep, Paris, France), run through a low-pass filter of 300 Hz, digitized at 100 Hz using a Digidata 1440A interface board (Axon Instruments, DIPSI Industrie, Châtillon, France) and acquired using Axoscope 10.2 software (Axon Instruments). The data were analyzed using Clampfit software (Axon Instruments). The peak amplitudes of EOG responses were measured at the maximum negative voltage deflection from baseline. The data were normalized by dividing the peak amplitude by the maximum amplitude elicited by 100 µM of IBMX, a phosphodiesterase inhibitor that activates the transduction pathway bypassing the receptor step.

[2] = system: mammalian ORs; set-up: method as in PMID 19261596; conditions: approximately 460 mammalian ORs; cited from earlier work
[3] = In vitro metabolism of coumarin by olfactory microsomes (HPLC); type: in vitro ADME, rat
Description: (§1) Animals were sacrificed by decapitation. […] The resulting pellet was resuspended in homogenization buffer. Hepatic subcellular fractions were prepared as described previously.
(§2) Coumarin Quinoline Isoamyl acetate
(§3) Subcellular fraction olfactory hepatic olfactory/hepatic olfactory/hepatic
(§4) microsomes microsomes microsomes S9

[4] = In vitro metabolism of coumarin by hepatic microsomes (HPLC); type: in vitro ADME, rat; conditions: liver (hepatic microsomes) incubation
Description: as §1, §2, §3, §4

[5] = system: CYPs; assay: Inhibition of quinoline metabolism catalyzed by olfactory microsomes; type: biochemical, rat; conditions: for pIC50: substrate quinoline
Description: as §1, §2, §3, §4

[6] = system: CYPs; assay: Inhibition of coumarin metabolite formation in olfactory microsomes; type: biochemical, rat; conditions: for pIC50: substrate coumarin
Description: as §1, §2, §3, §4

[7] = system: carboxylesterases; assay: Inhibition of isoamyl acetate hydrolysis in the olfactory S9 fraction; type: biochemical, rat
Description: as §1
(§5) Reactions involving isoamyl acetate were carried out for 10 min and were terminated by heating at 80°C for 15 min. After centrifugation at 12000 g for 10 min, isoamyl acetate metabolism was assessed by quantifying the acetate in a sample volume of 100 µL using an acetic acid assay kit (Megazyme, Bray, Ireland).
as §2, §3, §4

[8] = system: CYP; assay: Quinoline/coumarin metabolism in microsomes from OM superfused with inhibitor for 20 min; type: biochemical, rat; conditions: 400 µM, superfusion 20 min
Description: Reactions were performed in triplicate at 37°C and were initiated by adding odorant to the mixtures after a 5-min pre-incubation period. […] Subsequently, the products were centrifuged at 12 000 g for 10 min. An aliquot of the supernatant (100 µl) was analyzed by reverse phase high performance liquid chromatography (HPLC) using a Waters HPLC system (Milford, MA, USA) equipped with a pump (model 600), an autosampler thermostat set at 10°C (model a717 plus), a photodiode array UV detector (model 996) and an Uptisphere C18-ODB column (5-µm particle size, 150×4.6 mm; Interchim, Montluçon, France). The effluent from the column was routed to an UV detector, which can scan wavelengths from 210 to 400 nm. […] The separation of coumarin and its metabolites was achieved using a solvent gradient program (at 0.6 mL/min) set at: 25% acetonitrile/75% formic acid (0.01% in water) for 10 min, a linear gradient to 80% acetonitrile for 20 min, hold at 80% acetonitrile for 10 min, and then return to the initial conditions.

[9] = system: olfactory epithelium; assay: Effect of XME inhibitors on odorant-induced EOG responses; set-up: species or system rat
Description: Rats were sacrificed by CO2 exposure and decapitated. […] The data were analyzed using Clampfit software (Axon Instruments).
First, two series of odorant stimulations at 2-min intervals were performed with an 8-min recovery period between each series. Under control conditions, a 2-min interval is sufficient to recover normal response amplitude. Then, the inhibitor was diluted in the Ringer buffer (final concentration 400 µM) and applied to the olfactory turbinates at a rate of 2.5 mL/min for 20 min using the Rheodyne injection valve. The preparation was rinsed for 5 min with the Ringer buffer and the epithelium was stimulated by applying odorant using the same procedures as described above. EOG responses were recorded on endoturbinate IIb. IBMX was applied at the end of each measurement series for data normalization as described above. In addition to the peak maximum amplitude, the onset slope (10% to 90%) and the fast decay slope (90% to 40%) were measured and normalized to the corresponding EOG peak amplitude.

[10] = system: carboxylesterase; assay: Isoamyl acetate metabolism in S9 from OM superfused with inhibitor for 20 min; type: biochemical, rat; conditions: 400 µM, superfusion 20 min
Description: To investigate the functional role of the olfactory XMEs, we recorded odorant-induced EOG responses before and after applying two phase I enzyme inhibitors, ABT and BNPP. First, we confirmed that superfusion of OM with ABT or BNPP was sufficient to inhibit CYP and carboxylesterase activities, respectively. For this purpose, the in vitro metabolism of quinoline, coumarin and isoamyl acetate was measured. All steps were performed as described previously except that the microsomal or S9 fractions were prepared from OM that had been superfused with inhibitors for 20 min. Superfusion of the OM with 400 µM of ABT or BNPP decreased the metabolism of quinoline/coumarin or isoamyl acetate, respectively, by approximately 30 to 80% (Fig. S6).
as §5

[11] = inhibitor 400 µM for 20 min, endoturbinate IIb

## [O-][n+]1cccc2ccccc21 [Q-1-O, quinoline-1-oxide]
[1]
  EOG response compared with quinoline: half of that elicited by quinoline

## Cc1cc(=O)oc2cc(O)ccc12 [4-MU, 4-methylumbelliferone]
[1]
  EOG amplitude compared with parent compound (coumarin or 4-MC): significantly lower than those induced by their parent compounds

## Cc1cc(=O)oc2ccccc12 [4-MC, 4-methyl-coumarin]
[1]
  EOG amplitude compared with parent compound (coumarin or 4-MC): lower in amplitude than the responses to coumarin

## O=c1cc(O)c2ccccc2o1 [4-OH-C, 4-hydroxycoumarin]
[1]
  EOG amplitude compared with parent compound (coumarin or 4-MC): significantly lower than those induced by their parent compounds
[2]
  number of ORs activated: only activated one OR

## Oc1cccc2cccnc12 [8-OH-Q, 8-hydroxyquinoline]
[1]
  EOG response compared with quinoline: half of that elicited by quinoline

## O=c1ccc2ccccc2o1 [coumarin]
[3]; OM (olfactory microsomes) incubation
  rate of coumarin biotransformation: 13.3 nmol/min/mg protein
[3]; OM higher than liver
  rate of coumarin biotransformation, OM versus liver incubation: 65 fold
[4]
  rate of coumarin biotransformation: 0.2 nmol/min/mg protein
[2]
  number of ORs activated: 20

## CC(=O)O [acetic acid]
[1]
  effect of repeated application on the OM: caused tissue damage

## Cc1cc(=O)oc2cc(O[C@@H]3O[C@H](C(=O)O)[C@@H](O)[C@H](O)[C@H]3O)ccc12 [4-MU-G, 4-methylumbelliferone-β-D-glucuronide]
[1]
  EOG amplitude compared with parent compound (coumarin or 4-MC): did not elicit any measurable EOG response

## Nn1nnc2ccccc21 [ABT, 1-aminobenzotriazole]
[5]; inhibitor 400 µM
  decrease of the metabolism of quinoline: approximately 80%
[5]; read-out: IC50 for inhibition of quinoline-1-oxide formation
  pIC50: 3.87
[5]; read-out: IC50 for inhibition of quinoline-5,6-epoxide formation
  pIC50: 3.83
[6]; inhibitor 400 µM
  inhibition of coumarin metabolite formation: Ninety percent
[6]; read-out: IC50 for inhibition of 3-hydroxycoumarin formation
  pIC50: 4.39
[6]; read-out: IC50 for inhibition of 6-hydroxycoumarin formation
  pIC50: 4.28
[6]; read-out: IC50 for inhibition of 7-hydroxycoumarin formation
  pIC50: 4.72
[7]; data not shown
  effect on isoamyl acetate hydrolysis: no effect
[8]
  decrease of metabolism of quinoline/coumarin after superfusion of the OM: 30 to 80%
[9]; ABT 400 µM for 20 min, endoturbinate IIb
  effect on EOG responses to isoamyl acetate: did not affect
[9]; inhibitor 400 µM for 20 min
  effect on onset and decay slopes of EOG recordings: unaffected
[9]; [11]
  increase of maximum EOG amplitude elicited by coumarin: 43%
  increase of maximum EOG amplitude elicited by quinoline: 32%

## CC(C)CCO [isoamyl alcohol]
[1]; at any concentration (1, 10, 100 µM)
  EOG response amplitude, lower than that elicited by isoamyl acetate: approximately 60%

## O=c1ccc2ccc(O)cc2o1 [7-OH-C, 7-hydroxycoumarin]
[1]
  EOG amplitude compared with parent compound (coumarin or 4-MC): significantly lower than those induced by their parent compounds

## O=[N+]([O-])c1ccc(OP(=O)(O)Oc2ccc([N+](=O)[O-])cc2)cc1 [BNPP, bis-p-nitro-phenylphosphate]
[5]; data not shown
  effect on olfactory metabolism of quinoline: not affected
[6]; data not shown
  effect on coumarin metabolism: not affected
[7]; olfactory S9 fraction
  pIC50: 6.10
[10]
  decrease of metabolism of isoamyl acetate after superfusion of the OM: 30 to 80%
[9]; BNPP treatment, stated in the discussion only
  effect on EOG responses elicited by coumarin: but not those elicited by quinoline and coumarin
[9]; inhibitor 400 µM for 20 min
  effect on onset and decay slopes of EOG recordings: did not modify
[9]; [11]
  increase of maximal EOG response amplitude to isoamyl acetate: 30%
